Data as given in publication PMC5412012, “HS1BP3 negatively regulates autophagy by modulation of phosphatidic acid levels” (Nature Communications, 2016).

Tests used:
[1] = molecular target: T1, HS1BP3-PX (PX domain, GST-tagged) (Homo sapiens, UniProt Q53T59); assay: liposome floatation (Nycodenz), Coomassie gel; type: binding; settings: 5 uM GST-tagged protein, 2 mM total lipid, 20 mM Hepes pH 7.4, 150 mM NaCl, 1 mM MgCl2, 25 °C; PA in liposomes
T1 construct: N-terminal PX domain only, lacks C-terminal part; by primers starts at Met1 (MQSPAVL) and ends ...EFLGTRS; GST- or MBP-tagged, expressed in Escherichia coli
T1 sequence (Q53T59 1-139): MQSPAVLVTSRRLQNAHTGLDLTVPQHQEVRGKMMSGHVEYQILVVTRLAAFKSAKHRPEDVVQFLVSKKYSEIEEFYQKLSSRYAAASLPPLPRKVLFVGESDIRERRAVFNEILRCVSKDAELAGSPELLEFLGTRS

[2] = molecular target: T2, HS1BP3 (full length, GST-tagged) (Homo sapiens, UniProt Q53T59); assay: liposome floatation (Nycodenz), Coomassie gel; type: binding; settings: 5 uM GST-tagged protein, 2 mM total lipid, 20 mM Hepes pH 7.4, 150 mM NaCl, 1 mM MgCl2, 25 °C; PA in liposomes
T2 construct: full length, N-terminal PX domain plus unstructured C terminus; GST-tagged (floatation) or MBP-tagged (lipid strips), expressed in Escherichia coli
T2 sequence (Q53T59 1-392): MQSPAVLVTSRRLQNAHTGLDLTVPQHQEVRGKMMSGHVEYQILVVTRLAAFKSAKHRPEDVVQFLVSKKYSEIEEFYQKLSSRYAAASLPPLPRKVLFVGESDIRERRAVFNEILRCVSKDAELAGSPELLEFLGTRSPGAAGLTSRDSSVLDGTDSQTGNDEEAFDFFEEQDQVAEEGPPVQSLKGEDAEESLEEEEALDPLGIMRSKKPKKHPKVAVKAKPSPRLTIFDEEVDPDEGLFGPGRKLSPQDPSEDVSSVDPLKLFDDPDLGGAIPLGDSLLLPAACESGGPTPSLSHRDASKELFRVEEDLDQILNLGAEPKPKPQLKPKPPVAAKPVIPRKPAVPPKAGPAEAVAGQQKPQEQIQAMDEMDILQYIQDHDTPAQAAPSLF

**Q.** Which “liposome floatation (Nycodenz), Coomassie gel” value [1] does the source give for CCCCCCCC/C=C\CCCCCCCC(=O)OC[C@H](COP(=O)(O)O)OC(=O)CCCCCCC/C=C\CCCCCCCC [dioleyoyl-phosphatidic acid] here?
**A.** The value was “binding of both HS1BP3 and the PX domain to PA increase with increasing concentrations”.

**Q.** And the “liposome floatation (Nycodenz), Coomassie gel” value [2]?
**A.** The value was “binding of both HS1BP3 and the PX domain to PA increase with increasing concentrations”.
